This is an account of results in ChEMBL document CHEMBL5113406, “Structure-based discovery and development of novel O-GlcNAcase inhibitors for the treatment of Alzheimer's disease” (Eur J Med Chem, 2022).

The source made the active and inactive calls. The calls are words filed in the database; no cut-off is given here.

A short description of data set [1]: Cytotoxicity against mouse HT-22 cells assessed as cell viability at 10 uM after 18 hrs by MTT assay. The conditions noted are these: read-out: Activity. In kind it is toxicity, cell-based. On the technique in general: Tetrazolium assays rely on reduction of a dye to a coloured formazan, in cell work by metabolically active cells.
Data set [2] concerns the target T1, Hexosaminidase D (Homo sapiens) (UniProt Q8WVB3).
T1 sequence (whole entry): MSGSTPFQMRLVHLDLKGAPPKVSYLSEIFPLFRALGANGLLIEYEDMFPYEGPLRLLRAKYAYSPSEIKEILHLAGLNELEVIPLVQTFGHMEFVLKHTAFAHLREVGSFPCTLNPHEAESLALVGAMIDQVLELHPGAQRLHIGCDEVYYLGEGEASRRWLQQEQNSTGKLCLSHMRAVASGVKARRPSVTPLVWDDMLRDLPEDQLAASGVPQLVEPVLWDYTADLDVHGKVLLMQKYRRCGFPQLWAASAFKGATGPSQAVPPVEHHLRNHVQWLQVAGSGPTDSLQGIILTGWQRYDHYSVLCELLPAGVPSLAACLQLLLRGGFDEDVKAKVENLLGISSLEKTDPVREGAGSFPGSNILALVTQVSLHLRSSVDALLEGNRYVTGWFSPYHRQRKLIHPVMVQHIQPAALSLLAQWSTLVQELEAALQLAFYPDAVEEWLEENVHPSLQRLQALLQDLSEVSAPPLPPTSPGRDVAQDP
Put plainly: Inhibition of human recombinant beta-hexosaminidase at 10 uM pretreated with compound followed by 4-nitrophenyl Nacetyl-beta-D-glucosaminide substrate addition by fluorometer.

The next data set concerns the target T2, Protein O-GlcNAcase (Homo sapiens, UniProt O60502).
T2 sequence (O60502 whole entry): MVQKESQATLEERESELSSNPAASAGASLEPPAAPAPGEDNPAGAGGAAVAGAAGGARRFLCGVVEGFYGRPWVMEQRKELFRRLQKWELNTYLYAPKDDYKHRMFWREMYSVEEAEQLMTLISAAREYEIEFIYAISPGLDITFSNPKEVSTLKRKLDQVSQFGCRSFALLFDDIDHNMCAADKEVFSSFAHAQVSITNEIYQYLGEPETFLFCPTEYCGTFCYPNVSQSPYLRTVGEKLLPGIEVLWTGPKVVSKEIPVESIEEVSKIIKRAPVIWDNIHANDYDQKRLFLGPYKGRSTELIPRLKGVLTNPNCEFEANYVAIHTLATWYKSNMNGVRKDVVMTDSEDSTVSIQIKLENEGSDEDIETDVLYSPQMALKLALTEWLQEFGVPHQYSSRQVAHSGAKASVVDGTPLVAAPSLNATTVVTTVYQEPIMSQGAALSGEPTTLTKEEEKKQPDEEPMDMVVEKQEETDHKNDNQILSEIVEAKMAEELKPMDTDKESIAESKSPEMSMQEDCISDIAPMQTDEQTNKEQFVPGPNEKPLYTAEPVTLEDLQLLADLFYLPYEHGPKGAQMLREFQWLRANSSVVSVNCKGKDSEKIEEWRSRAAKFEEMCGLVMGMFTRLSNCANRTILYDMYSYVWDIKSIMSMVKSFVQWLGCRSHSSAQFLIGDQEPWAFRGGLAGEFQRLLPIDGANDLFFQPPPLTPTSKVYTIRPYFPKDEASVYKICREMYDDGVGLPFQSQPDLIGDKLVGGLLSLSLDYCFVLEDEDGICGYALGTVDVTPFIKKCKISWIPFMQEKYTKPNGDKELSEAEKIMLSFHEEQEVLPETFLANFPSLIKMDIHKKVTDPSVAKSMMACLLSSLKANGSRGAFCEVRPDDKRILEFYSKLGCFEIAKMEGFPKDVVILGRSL
Put plainly: Inhibition of human recombinant OGA pretreated for 20 mins followed by 4-Methylumbelliferyl N-acetyl-(3-D-glucosaminide substrate addition by fluorometer.

A short description of data set [3]: Tmax in ICR mouse plasma at 20 mg/kg, ip after 24 hrs by LC-MS/MS analysis. The format is ADME, organism-based.
Data set [4] is described as follows: AUCinfinity in ICR mouse plasma at 20 mg/kg, ip after 24 hrs by LC-MS/MS analysis. In kind it is ADME, organism-based. More on the design: time 24 hrs, dose 20 mg/kg, route ip.
Data set [5] can be described thus: Half life in ICR mouse plasma at 20 mg/kg, ip after 24 hrs by LC-MS/MS analysis. The format is ADME, organism-based.
For data set [6], the system named is Brain. Put plainly: Anti-alzheimer activity in mouse model assessed as decrease in amyloid beta level in brain at 2 mg/kg, ip for 3 days by ELISA relative to control. In kind it is functional. The conditions noted are these: 72 h, time 3 day. (In general: In an ELISA, binding on a coated surface is turned into a signal by an enzyme label.)
The nature of data set [7]: Cmax in ICR mouse plasma at 20 mg/kg, ip after 24 hrs by LC-MS/MS analysis. The format is ADME, organism-based. Details: dose 20 mg/kg, time 24 hrs, route ip.
The subject of data set [8] is Mus musculus. The experiment in a line: Neuroprotective activity against amyloid beta (1 to 42)-induced cognitive impairement in ICR mouse assessed as spontaneous alteration at 20 mg/kg, ip for 3 days by Y-maze test. In kind it is functional, organism-based. The conditions noted are these: time 3.0 day.
A short description of data set [9]: AUClast in ICR mouse plasma at 20 mg/kg, ip after 24 hrs by LC-MS/MS analysis. The format is ADME, organism-based. More on the design: dose 20 mg/kg, time 24 hrs, route ip.
Data set [10] in a line: AUCt in ICR mouse plasma at 20 mg/kg, ip after 24 hrs by LC-MS/MS analysis. In kind it is ADME, organism-based. More on the design: time 24 hrs, dose 20 mg/kg, route ip.
The nature of data set [11]: Ratio of drug level in ICR mouse brain to plasma at 20 mg/kg, ip after 24 hrs by LC-MS/MS analysis. The format is ADME, organism-based. The conditions noted are these: brain and plasma, read-out: BPR.
A short description of data set [12]: AUClast in ICR mouse brain at 20 mg/kg, ip after 24 hrs by LC-MS/MS analysis. In kind it is ADME, organism-based. More on the design: time 24 hrs, dose 20 mg/kg, route ip.
In data set [13] the test system is Brain. Put plainly: Anti-alzheimer activity in mouse model assessed as decrease in amyloid beta level in brain at 20 mg/kg, ip for 3 days by ELISA relative to control. In kind it is functional. The conditions noted are these: 72 h, time 3 day.
Data set [14] relates to Mus musculus. Put plainly: In vivo inhibition of OGA in amyloid-beta-induced ICR mouse assessed as decrease in 4-MUF level at 2 to 20 mg/kg, ip for 3 days by fluorescence analysis. In kind it is functional, organism-based. The conditions noted are these: dose 2-20 mg/kg, time 3.0 day.
The species named for data set [15] is Mus musculus. The conditions noted are these: ICR, dose 50.0 mg/kg, route ip, time 3.0 day.
For data set [16], the system named is Mus musculus. Put plainly: Neuroprotective activity against amyloid beta (1 to 42)-induced cognitive impairement in ICR mouse assessed as […] spontaneous alteration at 50 mg/kg, ip for 3 days by Y-maze test. The format is functional, organism-based. The conditions noted are these: time 3.0 day.
Data set [17] in a line: Ratio of drug level in ICR mouse brain to plasma at 50 mg/kg, ip after 24 hrs by LC-MS/MS analysis. In kind it is ADME, organism-based. The conditions noted are these: brain and plasma, read-out: BPR.
The test system of data set [18] is Brain. Put plainly: Anti-alzheimer activity in mouse model assessed as decrease in amyloid beta level in brain at 50 mg/kg, ip for 3 days by ELISA relative to control. The format is functional. The conditions noted are these: 72 h, time 3 day.
The nature of data set [19]: AUClast in ICR mouse plasma at 50 mg/kg, ip after 24 hrs by LC-MS/MS analysis. The format is ADME, organism-based. Details: dose 50 mg/kg, time 24 hrs, route ip.
The nature of data set [20]: AUClast in ICR mouse brain at 50 mg/kg, ip after 24 hrs by LC-MS/MS analysis. Details: dose 50 mg/kg, time 24 hrs, route ip. In kind it is ADME, organism-based.

The inhibition is the relative decrease from the control value, in per cent. Take `CC(=O)Nc1ncc(CN2CCCC(C(=O)Nc3ccc(F)cc3)C2)s1` (centres undefined): the viability at 18 h, 10 µM in data set [1] turned out to be 120%. Also, the inhibition in data set [2] worked out at 92.5%.
As to `CC(=O)N[C@H]1/C(=N\OC(=O)Nc2ccccc2)O[C@H](CO)[C@@H](O)[C@@H]1O`, the viability at 18 h, 10 µM in [1] amounted to 102%. Besides, in [2], the inhibition was determined as 7.6%.
Broadly, the IC50 is the point on the concentration scale where inhibition reaches its midpoint. Regarding `CC(=O)Nc1ncc(CN2CCCC(C(=O)NC3CCCCC3)C2)s1` (centres undefined), the IC50 on Protein O-GlcNAcase is 0.23 µM.
Same read-out and setting: the figure for `CC(=O)Nc1ncc(CN2CCCC(C(=O)Nc3ccccc3)C2)s1` (centres undefined) is 0.45 µM.
For `CC(=O)Nc1ncc(CN2CCC(C(=O)Nc3ccc(F)cc3)CC2)s1`, the IC50 on Protein O-GlcNAcase is 0.16 µM.
On to `COc1ccc(CNC(=O)C=C2CCN(Cc3cnc(NC(C)=O)s3)CC2)cc1`, for which the viability at 18 h, 10 µM in data set [1] was determined as 109%. In [2], the inhibition came to 89.6%.
On the same counts, the results for `CC(=O)Nc1ncc(CN2CCN(CC(=O)Nc3ccc(Cc4ccccc4)cc3)CC2)s1` are 140% and 101%.
`CC(=O)Nc1ncc(CN2CCN(CC(=O)NC3CCCCC3)CC2C)s1` (centres undefined): the viability at 18 h, 10 µM in [1] was 123%. Also, in data set [2], the inhibition was determined as 101%.
On the same counts, the results for `CC(=O)Nc1ncc(CN2CCN(CC(=O)Nc3ccc(Cc4ccccc4)cc3)CC2C)s1` (centres undefined) are 136% and 106%.
With `CC(=O)Nc1ncc(CN2CCC(=CC(=O)NC3CCCCC3)CC2)s1`, the IC50 at Protein O-GlcNAcase came to 0.28 µM.
By Tmax is commonly meant the time at which the peak concentration occurs. A word on the AUC(0-inf): it is total exposure, with the tail of the curve extrapolated. Read a low AUC(0-inf) as low exposure. As usually defined, the half-life is the time in which the quantity being followed falls by half. The term inhibition in vivo denotes the change of the read-out against control, counted positive when it falls. By Cmax is commonly meant the highest concentration seen after dosing. What is called AUC(0-t) is the area under the concentration-time curve up to a stated or last time point. A higher AUC(0-t) goes with more exposure. For the compound `CC(=O)Nc1ncc(CN2CCN(CC(=O)Nc3ccc(Cl)cc3)CC2C)s1` (centres undefined), in [3], the Tmax was 21.6 min. Also, in data set [4], the AUC(0-inf) amounted to 5.21 µg·h/mL. Moreover, the viability at 18 h, 10 µM in data set [1] turned out to be 111%. The half-life in data set [5] was 91.8 min. Moreover, in the data set on Brain [6], the inhibition in vivo at 2 mg/kg is 42%. Further, the peak level in data set [7] (Cmax) was 3.2 µg/mL. Also, the outcome in the data set on Mus musculus [8] was Active. The AUC(0-t) at 24 h was determined as 2.96 µg·h/mL in [9], 4.98 µg·h/mL in [10] and 0.59 µg·h/mL in data set [12]. Further, in data set [2], the inhibition came out at 92.4%. For the same compound, the Kp at 24 h in [11] turned out to be 0.2. Besides, the inhibition in vivo at 20 mg/kg in the data set with Brain [13] stood at 71.8%. For the same compound, the inhibition result with Mus musculus [14] was “Active”.
`CC(=O)Nc1ncc(CN2CCC(C(=O)Nc3ccc(C)cc3)CC2)s1`: the IC50 on Protein O-GlcNAcase was 0.3 µM.
The same measure, in the same setting: the same measure for `CC(=O)Nc1ncc(CN2CCN(CC(=O)Nc3ccccn3)CC2)s1`: 1.4 µM.
Take `CC(=O)Nc1ncc(CN2CCN(CC(=O)Nc3ccccc3)CC2C)s1` (centres undefined): the viability at 18 h, 10 µM in data set [1] was 98.6%. Moreover, the inhibition in [2] was 103%.
As for `CC(=O)Nc1ncc(CN2CCN(CC(=O)Nc3ccc(N4CCN(C(C)=O)CC4)cc3)CC2C)s1` (centres undefined), in data set [1], the viability at 18 h, 10 µM was determined as 94.4%. The inhibition in data set [2] came out at 73.5%.
Turning to `CCNC1=N[C@@H]2[C@@H](O)[C@H](O)[C@@H](CO)O[C@@H]2S1`, the inhibition entry in the data set filed under Mus musculus [15] was “Active”. In the data set with Mus musculus [16], the outcome was Active. For the same compound, the Kp at 24 h in data set [17] is 0.07. Moreover, the viability at 18 h, 10 µM in [1] is 95.9%. Also, the inhibition in vivo at 50 mg/kg in the data set on Brain [18] was determined as 62.8%. In addition, the AUC(0-t) at 24 h came out at 10 µg·h/mL in [19] and 0.59 µg·h/mL in data set [20]. Further, the inhibition in [2] is 91.6%.
